Paper PMC4414309, “Target Modulation by a Kinase Inhibitor Engineered to Induce a Tandem Blockade of the Epidermal Growth Factor Receptor (EGFR) and c-Src: The Concept of Type III Combi-Targeting” (PLoS ONE, 2015)
Where two headings read alike, the source gives them in different places.

Key:
[1] = LC-MS analysis of AL776 hydrolysis in plasma in vivo; set-up: species or system CD-1 mice; details: AL776 80 mg/kg i.v., after 30 min
Protocol: CD-1 mice were divided into groups of three and treated with 80 mg/kg of AL776, injected intraperitoneally (i.p) or intravenously (i.v). Mice were sacrificed and their plasma was collected for further analysis after 0, 5, 15 and 30 min after drug treatment. Plasma samples were extracted using twice the volume of methanol and lysed at 13,000 rpm for 30 min at 4°C. The resulting supernatant from each sample was collected, filtered and evaporated to dryness before reconstituting in 100 μL of methanol. LC-MS analyses were performed on a Synapt G2-S instrument coupled with an Acquity UPLC Class I system both from Waters. Elution rate was set at 500 μL/min using an Eclipse XDB C8, 3.5 um, 2.1 x 100 mm chromatographic column from Agilent Technologies. The experiments were performed with the following eluents: 0.1% aqueous formic acid (eluent A) and methanol (eluent B). The initial mobile phase was 30% B, which was maintained for 0.2 min at the beginning of the run. The following gradient elution was subsequently applied: 30 to 50% B from 0.2 to 4 min; 50 to 80% B from 4 to 10 min; held at 80% B from 10 to 11 min. Thereafter, eluent B was decreased to 30% in 0.2 min and held constant for up to 15 min to allow the column to equilibrate. Each sample was diluted with methanol in order to avoid detector saturation and […] aliquots of the resulting solutions were injected. Analyses were performed with the electrospray interface in positive ion mode and mass spectra acquired from m/z 100 to 1200. For accurate mass determination, Leucine Enkephalin was used as lock mass. The MassLynx software was used for instrument control, data acquisition and data processing.

EGFR [2] = molecular target: T1, EGFR (Homo sapiens, UniProt P00533); experiment: Published EGFR kinase inhibition of AL621; format: biochemical; details: published IC50 of AL621 compared with AL776
T1 construct: purchased Enzo Life Sciences Inc, NY, USA; Signal Chem, Richmond, Canada

EGFR [3] = molecular target: T1, EGFR; set-up: method as in PMID 22943437; details: read-out: IC50 EGFR kinase inhibition (published); cited from earlier work
4T1 cells [4] = experiment: Boyden chamber invasion assay, 4T1; format: cell-based, mouse; details: for Effect on invasion: 4T1, concentration as low as 0.1 μM, 24h
Protocol: (§1) The invasive property of MDA-MB-231 and 4T1 cells was determined using the Boyden-chamber invasion assay. Cells suspended in serum-free media were plated (120–150,000 cells/well) onto polycarbonate transwell inserts (8 μm pore size, BD Biosciences) coated with matrigel (6%) (BD Biosciences), separating the top and bottom chambers (50 μl/filter). […] The invasive property of cells was observed 24h after treatment by fixing cells in formalin and staining with 0.1% crystal violet (Sigma-Aldrich Canada Ltd). Cells attached on the upper surface of the insert (top chamber) were removed by gently scraping away with a cotton swab, whereas those that invaded onto the lower side of the insert were observed using a microscope (Leica DM IL inverted microscope, 10X). Images of five non-overlapping fields of invading cells were captured using the Leica DFC300FX camera and quantification was done using the Scion Image Analysis (3.53.0.0) software and ImageJ 1.46r software. The results were expressed in terms of percentage of invading cells relative to control and the bar graphs represent the average of three independent experiments.

NIH3T3 wild type cells = experiment: Growth inhibition, sulforhodamine B (SRB) assay, NIH3T3 wild type; details: Mus musculus, NIH3T3, 120 h, read-out: IC50 growth inhibition NIH3T3 – Wt
Protocol: (§3) Growth inhibition was measured in cells using the sulforhodamine B (SRB) assay [48]. […] The plates were subsequently rinsed with 1% acetic acid, and allowed to dry overnight. […] The results were analyzed using GraphPad Prism 6.0 (GraphPadSoftware, Inc., San Diego, CA) and the sigmoidal dose response curve was used to determine IC50 values. Each experiment was carried out at least four times, in triplicate.

4T1 cells [5] = experiment: Growth inhibition, SRB assay, 4T1; details: Mus musculus, 4T1, 120 h, read-out: IC50 growth inhibition 4T1
Protocol: as §3

MDA-MB-231 cells [6] = experiment: Growth inhibition, SRB assay, MDA-MB-231; details: Homo sapiens, MDA-MB-231, 120 h, read-out: IC50 growth inhibition MDA-MB-231
Protocol: as §3

MDA-MB-231 cells [7] = experiment: Boyden chamber invasion assay, MDA-MB-231; format: cell-based, human; details: for Effect on invasion: MDA-MB-231, concentration as low as 0.1 μM, 24h
Protocol: as §1

c-Src = molecular target: T2, c-Src (Homo sapiens, UniProt P12931); experiment: In vitro kinase assay, c-Src; format: biochemical; details: ATP 50 μM, read-out: IC50 c-Src kinase inhibition
T2 construct: purchased Enzo Life Sciences Inc, NY, USA; Signal Chem, Richmond, Canada
Protocol: (§2) The EGFR and c-Src kinase assays were performed in 96-well plates (NuncMaxisorp) coated with PGT (poly L-glutamic acid L-tyrosine, 4:1, Sigma Aldrich, MO, USA) and incubated at 37°C for 48h prior to using. PGT served as the substrate to be phosphorylated by EGFR (Enzo Life Sciences Inc, NY, USA, Signal Chem, Richmond, Canada) and c-Src (Enzo Life Sciences Inc, NY, USA, Signal Chem, Richmond, Canada) in the presence of ATP (50 μM). […] To each well, 15 ng of EGFR (20 μg/ml) or 6 ng of c-Src (0.1 μg/μl) were added. The phosphorylated substrate was detected using an HRP-conjugated anti-phosphotyrosine antibody (Santa Cruz Biotechnology, CA). The signal was developed by the addition of 3, 3’, 5, 5’-tetramethylbenzidine peroxidase substrate (Kierkegaard and Perry Laboratories, Gaithersburg, MD) and the colorimetric reaction was monitored at 450 nm using a microplate reader ELx808 (BioTek Instruments). The IC50 values were calculated using GraphPad Prism 6.0 (GraphPadSoftware, Inc., San Diego, CA). Each experiment was carried out at least three times, in duplicate.

EGFR [8] = molecular target: T1, EGFR; experiment: In vitro kinase assay, EGFR; format: biochemical; details: ATP 50 μM, average of three independent experiments in duplicate, read-out: IC50 EGFR kinase inhibition
Protocol: as §2

[9] = average of three independent experiments in duplicate

T2 sequence (P12931 whole entry): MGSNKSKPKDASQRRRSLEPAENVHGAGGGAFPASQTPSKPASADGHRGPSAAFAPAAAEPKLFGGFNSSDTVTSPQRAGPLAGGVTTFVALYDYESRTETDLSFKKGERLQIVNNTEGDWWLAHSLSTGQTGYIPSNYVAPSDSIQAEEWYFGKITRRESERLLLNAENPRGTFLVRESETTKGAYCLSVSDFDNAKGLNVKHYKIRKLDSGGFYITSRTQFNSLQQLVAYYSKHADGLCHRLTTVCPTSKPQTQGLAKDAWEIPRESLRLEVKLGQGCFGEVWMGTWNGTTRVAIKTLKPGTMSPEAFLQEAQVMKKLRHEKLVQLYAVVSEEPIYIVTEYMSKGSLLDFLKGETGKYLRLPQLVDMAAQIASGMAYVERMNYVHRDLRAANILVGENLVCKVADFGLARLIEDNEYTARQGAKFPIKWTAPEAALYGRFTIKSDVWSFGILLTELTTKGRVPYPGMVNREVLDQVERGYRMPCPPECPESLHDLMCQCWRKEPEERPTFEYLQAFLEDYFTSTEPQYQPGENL
T1 sequence (P00533 25-1210): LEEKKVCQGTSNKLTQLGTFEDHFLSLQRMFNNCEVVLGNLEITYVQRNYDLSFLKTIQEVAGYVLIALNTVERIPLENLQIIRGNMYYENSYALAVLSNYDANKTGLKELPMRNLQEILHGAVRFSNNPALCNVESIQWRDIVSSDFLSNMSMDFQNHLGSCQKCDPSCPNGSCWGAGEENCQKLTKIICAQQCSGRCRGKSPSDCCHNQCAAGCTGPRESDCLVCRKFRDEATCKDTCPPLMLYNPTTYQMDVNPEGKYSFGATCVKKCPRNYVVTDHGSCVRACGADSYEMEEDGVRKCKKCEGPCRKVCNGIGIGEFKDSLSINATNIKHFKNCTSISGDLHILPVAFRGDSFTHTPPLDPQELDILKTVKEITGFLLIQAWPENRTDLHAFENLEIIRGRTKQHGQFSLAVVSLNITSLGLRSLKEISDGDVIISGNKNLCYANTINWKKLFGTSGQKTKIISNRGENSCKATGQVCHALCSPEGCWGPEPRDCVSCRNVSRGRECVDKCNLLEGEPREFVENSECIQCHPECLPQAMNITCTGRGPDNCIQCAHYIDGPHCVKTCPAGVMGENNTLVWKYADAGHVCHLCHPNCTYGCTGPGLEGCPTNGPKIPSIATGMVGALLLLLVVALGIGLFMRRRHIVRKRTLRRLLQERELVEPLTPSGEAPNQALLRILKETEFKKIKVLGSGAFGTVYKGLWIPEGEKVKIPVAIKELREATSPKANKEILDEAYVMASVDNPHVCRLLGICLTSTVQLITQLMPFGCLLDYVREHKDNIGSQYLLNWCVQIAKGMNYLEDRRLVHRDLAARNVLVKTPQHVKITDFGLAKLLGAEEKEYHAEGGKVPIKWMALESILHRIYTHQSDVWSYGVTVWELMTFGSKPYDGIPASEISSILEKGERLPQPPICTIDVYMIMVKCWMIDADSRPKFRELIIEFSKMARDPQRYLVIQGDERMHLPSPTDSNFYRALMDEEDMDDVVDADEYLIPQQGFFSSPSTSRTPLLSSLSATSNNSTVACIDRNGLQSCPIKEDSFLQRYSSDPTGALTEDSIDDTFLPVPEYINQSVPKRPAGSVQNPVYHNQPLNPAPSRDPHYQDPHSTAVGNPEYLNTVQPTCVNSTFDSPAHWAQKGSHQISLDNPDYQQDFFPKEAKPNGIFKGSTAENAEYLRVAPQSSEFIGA

Plasma level as metabolite of AL776 [1] | IC50 (EGFR [8]) [µM] | IC50 (c-Src; [9]) [µM] | Compound | Effect on invasion (4T1 cells [4]) | Effect on invasion (MDA-MB-231 cells [7]) | further results
abundant levels | – | – | CN(CCO)Cc1ccc(C(=O)Nc2ccc3ncnc(Nc4cccc(Cl)c4)c3c2)cc1 [AL621] | – | – | EGFR kinase potency relative to intact AL776 (EGFR [2]): ca. 40 fold; IC50 (EGFR [3]): 0.003 µM
abundant levels | – | – | Cc1nc(Nc2ncc(C(=O)Nc3c(C)cccc3Cl)s2)cc(N2CCN(CCO)CC2)n1 [Dasatinib, dasatinib, reference compound] | strongly inhibited invasion | strongly inhibited invasion | IC50 (NIH3T3 wild type cells): 16.4 ± 5.2 µM; IC50 (4T1 cells [5]): 0.05 ± 0.02 µM; IC50 (MDA-MB-231 cells [6]): 0.02 ± 0.01 µM
– | – | – | COc1cc2ncnc(Nc3ccc(F)c(Cl)c3)c2cc1OCCCN1CCOCC1 [Gefitinib, gefitinib] | mostly unable to block invasion | mostly unable to block invasion | Anti-invasive effect weaker than dasatinib (4T1 cells [4]; 4T1): 2-3 fold; Anti-invasive effect weaker than dasatinib (MDA-MB-231 cells [7]; MDA-MB-231): 2-3 fold
– | 0.6 ± 0.2 | – | Cc1nc(Nc2ncc(C(=O)Nc3c(C)cccc3Cl)s2)cc(N2CCN(CCOC(=O)c3cnc(C(=O)Nc4ccc5ncnc(Nc6cccc(Cl)c6)c5c4)cn3)CC2)n1 [III] | – | – | IC50 (c-Src): < 0.0001 µM
– | 0.4 ± 0.1 | 0.008 ± 0.003 | Cc1nc(Nc2ncc(C(=O)Nc3c(C)cccc3Cl)s2)cc(N2CCN(CCOC(=O)CCC(=O)Nc3ccc4ncnc(Nc5cccc(Cl)c5)c4c3)CC2)n1 [IV] | – | – | –
– | 1.1 ± 0.3 | 0.04 ± 0.01 | Cc1nc(Nc2ncc(C(=O)Nc3c(C)cccc3Cl)s2)cc(N2CCN(CCOC(=O)OCCN3CCN(CCNc4ccc5ncnc(Nc6cccc(Br)c6)c5c4)CC3)CC2)n1 [VI] | – | – | –
